This note sets out measurements from ChEMBL document CHEMBL4680232, “Discovery of small molecules targeting GRP78 for antiangiogenic and anticancer therapy” (Eur J Med Chem, 2020).

The source made the active and inactive calls. The calls are words filed in the database; no cut-off is given here.

Assay [1] deals with HUVEC. Nature of the assay: Antiangiogenic activity against VEGF-stimulated HUVEC assessed as reduction in cell viability measured after 48 hrs by MTT assay. The format is functional, cell-based. The note with it: Homo sapiens. A general note: Tetrazolium assays rely on reduction of a dye to a coloured formazan, in cell work by metabolically active cells.
Assay [2] has as its target Endoplasmic reticulum chaperone BiP (Homo sapiens) (UniProt P11021). Nature of the assay: Binding affinity to human GRP78 at 1 uM measured after 30 mins by UF-ASMS analysis relative to control.
Assay [3] relates to HUVEC. The assay can be described thus: Antiangiogenic activity against VEGF-stimulated HUVEC assessed as reduction in cell viability at 10 uM measured after 48 hrs by MTT assay relative to control. The format is functional, Homo sapiens.
The test system of assay [4] is 786-0. The assay can be described thus: Cytotoxicity against human 786-0 cells assessed reduction in cell viability after 48 hrs by MTT assay. The format is functional.
The target in assay [5] is Endoplasmic reticulum chaperone BiP (Homo sapiens) (UniProt P11021). To be noted: dose 500.0 µM.
Sequence of Endoplasmic reticulum chaperone BiP (Homo sapiens) (P11021 whole entry): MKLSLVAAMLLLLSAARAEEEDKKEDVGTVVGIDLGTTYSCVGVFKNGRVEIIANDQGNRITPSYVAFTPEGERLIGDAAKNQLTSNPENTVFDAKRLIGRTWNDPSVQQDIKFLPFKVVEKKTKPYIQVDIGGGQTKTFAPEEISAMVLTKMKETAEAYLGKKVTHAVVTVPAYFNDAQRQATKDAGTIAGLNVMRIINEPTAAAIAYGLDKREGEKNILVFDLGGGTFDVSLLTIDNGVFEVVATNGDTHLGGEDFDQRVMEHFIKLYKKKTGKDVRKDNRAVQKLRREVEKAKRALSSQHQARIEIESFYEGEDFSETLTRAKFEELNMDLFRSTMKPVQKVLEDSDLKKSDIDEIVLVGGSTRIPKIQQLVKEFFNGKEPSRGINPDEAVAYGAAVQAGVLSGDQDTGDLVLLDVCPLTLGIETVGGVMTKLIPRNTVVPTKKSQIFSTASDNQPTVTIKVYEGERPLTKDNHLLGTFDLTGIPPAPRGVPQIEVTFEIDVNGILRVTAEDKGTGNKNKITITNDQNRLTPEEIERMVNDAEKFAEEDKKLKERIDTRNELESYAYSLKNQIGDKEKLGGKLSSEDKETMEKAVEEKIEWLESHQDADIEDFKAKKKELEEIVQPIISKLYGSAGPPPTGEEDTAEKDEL
Description: Binding affinity to N-terminal His-tagged GRP78 (unknown origin) assessed as change in melting temperature at 500 uM by differential scanning fluorimetry
The subject of assay [6] is HUVEC. Nature of the assay: Antiangiogenic activity against VEGF-stimulated HUVEC assessed as reduction in cell viability up to 100 uM measured after 48 hrs by MTT assay. The note with it: Homo sapiens, dose microM <=100, time 48.0 hrs. Type of assay: functional, cell-based.
Assay [7] concerns HUVEC. Nature of the assay: Antiangiogenic activity against VEGF-stimulated HUVEC assessed as reduction in cell viability at 100 uM measured after 48 hrs by MTT assay relative to control. The format is functional.
For assay [8], the system named is 786-0. The assay can be described thus: Cytotoxicity against human 786-0 cells assessed reduction in cell viability at 10 uM after 48 hrs by MTT assay. Type of assay: functional, cell-based.
Assay [9] deals with 786-0. Nature of the assay: Cytotoxicity against human 786-0 cells assessed reduction in cell viability at 100 uM after 48 hrs by MTT assay. The format is functional, cell-based.

What is called CC50 is the concentration at which the toxic effect on the cells reaches its halfway point. Take `CC(C)CNC(=O)c1c(-c2ccc(COC(=O)c3ccccc3O)cc2)oc2ccccc12`: the CC50 in the assay with HUVEC [1] (time 48 hrs) stood at 10 µM. This compound came in with an RBA in assay [2] of 501%. The Activity in the assay with HUVEC [3] was 50%.

For the compound `O=c1[nH]c2nccc(OCCc3ccccc3)c2[nH]c1=O`, the RBA in [2] was determined as 1000%.

What is called EC50 is the midpoint of the concentration-response curve. One may read the ΔTm as the change in melting temperature against a reference sample. Take `COc1cc(OC)cc(C(=O)OCc2ccc(-c3oc4ccccc4c3C(=O)NCC(C)C)cc2)c1`: the EC50 with HUVEC [1] (48 h) came to 1.51 µM. Moreover, the CC50 with HUVEC [1] (time 48 hrs) and in the assay on 786-0 [4] was 10 µM throughout. The RBA in [2] was 143%. Further, the Activity with HUVEC [3] turned out to be 50%. For the same compound, the ΔTm in assay [5] amounted to 2.65 °C.

On to `O=C(O[C@@H]1Cc2c(O)cc(O)cc2O[C@@H]1c1cc(O)c(O)c(O)c1)c1cc(O)c(O)c(O)c1`, for which, in [2], the RBA is 271%. The result with HUVEC [6] was inactive.

Take `C=CCc1ccc(O)c(-c2ccc(O)c(CC=C)c2)c1`: the outcome with HUVEC [7] (Homo sapiens) was Active.

Regarding `CC(C)CNC(=O)c1c(-c2ccc(COC(=O)/C=C/c3ccc(O)cc3)cc2)oc2ccccc12`, the CC50 in the assay with HUVEC [1] (time 48 hrs) stood at 100 µM. Also, the outcome in the assay with HUVEC [7] (Homo sapiens) was Active.

On to `CC(=O)Nc1ccc(OCc2ccc(-c3oc4ccccc4c3C(=O)NCC(C)C)cc2)cc1`, for which the CC50 in the assay on HUVEC [1] (time 48 hrs) came out at 10 µM. The RBA in [2] was 61%. The Activity in the assay with HUVEC [3] was found to be 50%.

As for `CC(C)CNC(=O)c1c(-c2ccc(COC(=O)c3ccc(N(C)C)cc3)cc2)oc2ccccc12`, in the assay with HUVEC [1] (time 48 hrs), the CC50 worked out at 100 µM. The RBA in assay [2] came to 54%. For the same compound, the Activity in the assay on HUVEC [7] is recorded as 50%. Further, the outcome in the assay with HUVEC [3] (Homo sapiens) was inactive.

With `CC(C)CNC(=O)c1cccc2nc(-c3ccc(COC(=O)Cc4ccc(O)cc4)cc3)oc12`, the CC50 with HUVEC [1] (time 48 hrs) and with 786-0 [4] was 10 µM throughout. Also, the result in the assay on HUVEC [7] (Homo sapiens) was Active.

On to `COc1ccc(/C=C/C(=O)OCCc2ccccc2)cc1`, for which the RBA in assay [2] worked out at 64%.

`O=C(/C=C/c1ccc(O)c(O)c1)OCCc1ccc(Br)cc1` displayed an RBA in [2] of 90%. The Activity with HUVEC [7] was 50%. In addition, the result in the assay with HUVEC [3] (Homo sapiens) was inactive.

As for `CC(C)CNC(=O)c1c(-c2ccc(COc3ccc(CO)cc3)cc2)oc2ccccc12`, the CC50 in the assay on HUVEC [1] (time 48 hrs) and in the assay on 786-0 [4] was 10 µM throughout. In addition, the result with HUVEC [7] (Homo sapiens) was Active.

Turning to `CC(C)CNC(=O)c1c(-c2ccc(CO)cc2)oc2ccccc12`, the CC50 result in the assay with HUVEC [1] is “inactive”. In assay [2], this compound returned an RBA of 180%. Moreover, the result with HUVEC [6] was inactive.

`O=C(/C=C/c1ccc(O)c(O)c1)OCCc1ccccc1`: the RBA in [2] turned out to be 98%.

With `COc1cc(OC)cc(C(=O)OCc2ccc(-c3nc4cccc(C(=O)NCC(C)C)c4o3)cc2)c1`, in the assay with HUVEC [1], the CC50 entry is “inactive”.

As to `COc1ccc(OC)c(/C=C(\C#N)c2ccc(-c3oc4ccccc4c3C(=O)NCC(C)C)cc2)c1`, the CC50 in the assay with HUVEC [1] (time 48 hrs) turned out to be 100 µM.

Take `COC(=O)c1c(-c2ccc(COC(=O)c3cc(O)cc(O)c3)cc2)oc2ccccc12`: the CC50 in the assay with HUVEC [1] (time 48 hrs) is 10 µM. Further, the outcome in the assay with HUVEC [7] (Homo sapiens) and in the assay on 786-0 [9] was Active. In the assay with 786-0 [8], the result was inactive. Moreover, in [5], the ΔTm was -0.76 °C.

Turning to `Cc1oc(-c2ccccc2)nc1CCOc1cccc2oc(CCC(=O)O)nc12`, in assay [2], the RBA came out at 160%.

As to `CC(C)CNC(=O)c1c(-c2ccc(COC(=O)c3ccc(O)cc3)cc2)oc2ccccc12`, the CC50 in the assay with HUVEC [1] (time 48 hrs) was found to be 100 µM. Besides, the outcome in the assay with HUVEC [7] (Homo sapiens) was Active.

Take `Nc1ncnc2c1ncn2[C@@H]1O[C@H](COP(=O)(O)OP(=O)(O)OP(=O)(O)O)[C@@H](O)[C@H]1O`: in [5], the ΔTm turned out to be 4.65 °C.

`Nc1ccc2[nH]c(=O)c(=O)[nH]c2c1` gave an RBA in assay [2] of 119%.

For `CC(C)CNC(=O)c1c(-c2ccc(COC(=O)c3cc(O)cc(O)c3)cc2)oc2ccccc12`, in the assay with HUVEC [1] (time 48 hrs), the half-maximal cytotoxic concentration (CC50) came out at 100 µM. Besides, the outcome with HUVEC [7] (Homo sapiens) was Active.

On to `CC(C)CNC(=O)c1c(-c2ccc(COC(=O)Cc3ccc(O)cc3)cc2)oc2ccccc12`, for which the CC50 with HUVEC [1] (time 48 hrs) was found to be 100 µM. Besides, the result in the assay on HUVEC [7] (Homo sapiens) was Active.

As for `O=c1[nH]c2ccc(OCCc3ccccc3)nc2[nH]c1=O`, the RBA in assay [2] is 536%.

In assay [2], `CCOS(=O)(=O)/C=C/c1ccc(OC)c(OCCc2nc(-c3ccccc3)sc2C)c1` gave an RBA of 129%.

`CCCCNC(=O)c1c(-c2ccc(COC(=O)c3ccc(O)cc3)cc2)oc2ccccc12`: in the assay with HUVEC [1] (time 48 hrs), the 50% cytotoxic concentration (CC50) worked out at 100 µM. Besides, the outcome in the assay on HUVEC [7] (Homo sapiens) was Active.

`CC(C)CNC(=O)c1c(-c2ccc(COC(=O)c3ccccc3)cc2)oc2ccccc12`: in the assay with HUVEC [1] (time 48 hrs), the CC50 was 100 µM. Besides, the outcome in the assay on HUVEC [7] (Homo sapiens) was Active.
